Laboratory results taken from patent US7566712B2, “Biaryl piperazinyl-pyridine analogues” (Neurogen Corporation, priority 2003, dated 2009).

Molecular target: T1, human capsaicin receptor (Homo sapiens, UniProt Q8NER1)
T1 construct: pBK-CMV expression construct encoding the full length human capsaicin receptor; expressed in transfected cells
Assay: Calcium mobilization assay, determination of antagonist activity (Example 6)
Assay type: cell-based
Conditions: Table II; IC50 determined as described in Example 6
Summary of the method: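 Antagonism measured as inhibition of capsaicin-evoked (final concentration = EC50, from an 8-point 1 nM–3 μM curve) Fluo-3 calcium signal in stable hVR1-HEK293 cells. Test compounds at 1–5 μM final, 0.5–6 h dark preincubation at room temperature. IC50 = concentration giving 50% reduction versus agonist-only response.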

T1 sequence (Q8NER1 whole entry): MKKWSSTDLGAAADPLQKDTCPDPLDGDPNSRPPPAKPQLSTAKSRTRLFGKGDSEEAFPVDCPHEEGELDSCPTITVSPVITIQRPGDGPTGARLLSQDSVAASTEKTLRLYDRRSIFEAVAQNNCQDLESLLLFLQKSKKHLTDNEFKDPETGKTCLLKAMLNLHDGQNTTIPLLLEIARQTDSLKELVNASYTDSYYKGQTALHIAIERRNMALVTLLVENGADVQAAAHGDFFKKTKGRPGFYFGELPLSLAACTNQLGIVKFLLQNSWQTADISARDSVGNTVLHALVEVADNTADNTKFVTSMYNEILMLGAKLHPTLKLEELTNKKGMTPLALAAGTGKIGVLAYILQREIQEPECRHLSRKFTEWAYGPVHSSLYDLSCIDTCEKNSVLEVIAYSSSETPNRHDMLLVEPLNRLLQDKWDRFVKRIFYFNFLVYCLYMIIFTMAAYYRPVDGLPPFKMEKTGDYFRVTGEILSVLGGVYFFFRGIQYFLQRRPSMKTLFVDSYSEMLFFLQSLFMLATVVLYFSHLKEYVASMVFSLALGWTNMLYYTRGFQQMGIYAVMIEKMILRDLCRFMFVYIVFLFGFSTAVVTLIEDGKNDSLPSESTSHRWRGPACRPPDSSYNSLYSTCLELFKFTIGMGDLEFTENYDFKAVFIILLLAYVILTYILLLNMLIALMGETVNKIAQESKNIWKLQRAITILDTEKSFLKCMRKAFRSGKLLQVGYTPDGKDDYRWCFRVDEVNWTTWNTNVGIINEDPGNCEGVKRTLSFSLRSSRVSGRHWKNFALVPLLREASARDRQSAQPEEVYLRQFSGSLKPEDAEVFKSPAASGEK

Structure (SMILES) | IC50
C[C@@H]1CN(c2ncccc2C(F)(F)F)CCN1c1cc(-c2ccc(C(C)(C)C)cc2)nc(N2CCOCC2)n1 [Example 519, 4-(4-(4-tert-butylphenyl)-6-{(2R)-2-methyl-4-[3-(trifluoromethyl)pyridin-2-yl]piperazin-1-yl}pyrimidin-2-yl)morpholine] | ≤ 1000 nM
Cc1cccnc1N1CCN(c2cc(-c3cccc4ccccc34)nc(N3CCOCC3)n2)[C@H](C)C1 [Example 521, 4-[4-[(2R)-2-methyl-4-(3-methylpyridin-2-yl)piperazin-1-yl]-6-(1-naphthyl)pyrimidin-2-yl]morpholine] | ≤ 1000 nM
Cc1cccnc1N1CCN(c2cc(-c3ccc(C)c4ccccc34)nc(N3CCOCC3)n2)[C@H](C)C1 [Example 522, 4-[4-[(2R)-2-methyl-4-(3-methylpyridin-2-yl)piperazin-1-yl]-6-(4-methyl-1-naphthyl)pyrimidin-2-yl]morpholine] | ≤ 1000 nM
Cc1cccnc1N1CCN(c2cc(-c3ccc(OC(F)(F)F)cc3)nc(N3CCOCC3)n2)[C@H](C)C1 [Example 527, 4{4[(2R)-2-methyl-4-(3-methylpyridin-2-yl)piperazin-1-yl]-6-[4-(trifluoromethoxy)phenyl]pyrimidin-2-yl}morpholine] | ≤ 1000 nM
C[C@@H]1CN(c2ncccc2C(F)(F)F)CCN1c1cc(-c2ccc(OC(F)(F)F)cc2)nc(N2CCOCC2)n1 [Example 528, 4-{4-{(2R)-2-methyl-4-(3-(trifluoromethyl)pyridin-2-yl]piperazin-1-yl}-6-[4-(trifluoromethoxy)phenyl]pyrimidin-2-yl}morpholine] | ≤ 1000 nM
CSc1cccc(-c2cc(N3CCN(c4ncccc4C(F)(F)F)C[C@H]3C)nc(N3CCOCC3)n2)c1 [Example 538, 4-(4-[3-(methylthio)phenyl]-6-{(2R)-2-methyl-4-[3-(trifluoromethyl)pyridin-2-yl]piperazin-1-yl}pyrimidin-2-yl)morpholine] | ≤ 1000 nM
COc1ccc(-c2cc(N3CCN(c4ncccc4C)C[C@H]3C)nc(N3CCOCC3)n2)cc1F [Example 540, 4-{4-(3-fluoro-4-methoxyphenyl)-6-[(2R)-2-methyl-4-(3-methylpyridin-2-yl)piperazin-1-yl]pyrimidin-2-yl}morpholine] | ≤ 1000 nM
COc1ccc(-c2cc(N3CCN(c4ncccc4C(F)(F)F)C[C@H]3C)nc(N3CCOCC3)n2)cc1F [Example 541, 4-(4-(3-fluoro-4-methoxyphenyi)-6-{(2R)-2-methyl-4-[3-(trifluoromethyl)pyridin-2-yl]piperazin-1-yl}pyrimidin-2-yl)morpholine] | ≤ 1000 nM
Fc1ccc(-c2cc(N3CCN(c4ncccc4C(F)(F)F)CC3)nc(O[C@H]3CCOC3)n2)cc1Cl [Example 545, 4-(3-chloro-4-fluorophenyl)-2-[(3S)-tetrahydrofuran-3-yloxy]-6-{4-[3-(trifluoromethyl)pyridin-2-yl]piperazin-1-yl}pyrimidine] | ≤ 1000 nM
Fc1ccc(-c2cc(N3CCN(c4ncccc4C(F)(F)F)CC3)nc(N3CCNCC3)n2)cc1Cl [Example 546, 4-(3-chloro-4-fluorophenyl)-2-piperazin-1-yl-6-{4-[3-(trifluoromethyl)pyridin-2-yl]piperazin-1-yl}pyrimidine] | ≤ 1000 nM
CCCN1CCN(c2nc(-c3ccc(F)c(Cl)c3)cc(N3CCN(c4ncccc4C(F)(F)F)CC3)n2)CC1 [Example 547, 4-(3-chloro-4-fluorophenyl)-2-(4-propylpiperazin-1-yl)-6-{4-[3-(trifluoromethyl)pyridin-2-yl]piperazin-1-yl}pyrimidine] | ≤ 1000 nM
COC(CN(C)c1nc(-c2ccc(F)c(Cl)c2)cc(N2CCN(c3ncccc3C(F)(F)F)CC2)n1)OC [Example 548, 4-(3-chloro-4-fluorophenyl)-N-(2,2-dimethoxyethyl)-N-methyl-6-{4-[3-(trifluoromethyl)pyridin-2-yl]piperazin-1-yl}pyrimidin-2-amine] | ≤ 1000 nM
CN(CCO)c1nc(-c2ccc(F)c(Cl)c2)cc(N2CCN(c3ncccc3C(F)(F)F)CC2)n1 [Example 549, 2-[(4-(3-chloro-4-fluorophenyl)-6-{4-[3-(trifluoromethyl)pyridin-2-yl]piperazin-1-yl}pyrimidin-2-yl)(methyl)amino]ethanol] | ≤ 1000 nM

Further lines, results first:

IC50 | Structure (SMILES)
≤ 1000 nM | C[C@@H]1CN(c2ncccc2Cl)CCN1c1cc(-c2ccc(C(C)(C)C)cc2)nc(N2CCOCC2)n1 [Example 520, 4-{4-(4-tert-butylphenyl)-6-[(2R)-4-(3-chloropyridin-2-yl)-2-methylpiperazin-1-yl]pyrimidin-2-yl}morpholine]
≤ 1000 nM | COc1cccc(-c2cc(N3CCN(c4ncccc4C#N)C[C@H]3C)nc(N3CCOCC3)n2)c1 [Example 523, 2-{(3R)-4-[6-(3-methoxyphenyl)-2-morpholin-4-ylpyrimidin-4-yl]-3-methylpiperazin-1-yl}nicotinonitrile]
≤ 1000 nM | COc1cccc(-c2cc(N3CCN(c4ncccc4C)C[C@H]3C)nc(N3CCOCC3)n2)c1 [Example 524, 4-{4-(3-methoxyphenyl)-6-[(2R)-2-methyl-4-(3-methylpyridin-2-yl)piperazin-1-yl]pyrimidin-2-yl}morpholine]
≤ 1000 nM | COc1cccc(-c2cc(N3CCN(c4ncccc4C(F)(F)F)C[C@H]3C)nc(N3CCOCC3)n2)c1 [Example 525, 4-(4-(3-methoxyphenyl)-6-{(2R)-2-methyl-4-[3-(trifluoromethyl)pyridin-2-yl]piperazin-1-yl}pyrimidin-2-yl)morpholine]
≤ 1000 nM | COc1cccc(-c2cc(N3CCN(c4ncccc4Cl)C[C@H]3C)nc(N3CCOCC3)n2)c1 [Example 526, 4-[4-[(2R)-4-(3-chloropyridin-2-yl)-2-methylpiperazin-1-yl]-6-(3-methoxyphenyl)pyrimidin-2-yl]morpholine]
≤ 1000 nM | CCOc1cccc(-c2cc(N3CCN(c4ncccc4C)C[C@H]3C)nc(N3CCOCC3)n2)c1 [Example 529, 4-{4-(3-ethoxyphenyl)-6-[(2R)-2-methyl-4-(3-methylpyridin-2-yl)piperazin-1-yl]pyrimidin-2-yl}morpholine]
≤ 1000 nM | CCOc1cccc(-c2cc(N3CCN(c4ncccc4C(F)(F)F)C[C@H]3C)nc(N3CCOCC3)n2)c1 [Example 530, 4-(4-(3-ethoxyphenyl)-6-{(2R)-2-methyl-4-[3-(trifluoromethyl)pyridin-2-yl]piperazin-1-yl}pyrimidin-2-yl)morpholine]
≤ 1000 nM | CCOc1cccc(-c2cc(N3CCN(c4ncccc4Cl)C[C@H]3C)nc(N3CCOCC3)n2)c1 [Example 531, 4-[4-[(2R)-4-(3-chloropyridin-2-yl)-2-methylpiperazin-1-yl]-6-(3-ethoxyphenyl)pyrimidin-2-yl]morpholine]
≤ 1000 nM | C[C@@H]1CN(c2ncccc2C#N)CCN1c1cc(-c2cccc(OC(F)(F)F)c2)nc(N2CCOCC2)n1 [Example 532, 2-((3R)-3-methyl-4-{2-morpholin-4-yl-6-[3-(trifluoromethoxy)phenyl]pyrimidin-4-yl}piperazin-1-yl)nicotinonitrile]
≤ 1000 nM | Cc1cccnc1N1CCN(c2cc(-c3cccc(OC(F)(F)F)c3)nc(N3CCOCC3)n2)[C@H](C)C1 [Example 533, 4-{4-[(2R)-2-methyl-4-(3-methylpyridin-2-yl)piperazin-1-yl]-6-[3-(trifluoromethoxy)phenyl]pyrimidin-2-yl}morpholine]
≤ 1000 nM | C[C@@H]1CN(c2ncccc2C(F)(F)F)CCN1c1cc(-c2cccc(OC(F)(F)F)c2)nc(N2CCOCC2)n1 [Example 534, 4-{4-{(2R)-2-methyl-4-[3-(trifluoromethyl)pyridin-2-yl]piperazin-1-yl}-6-[3-(trifluoromethoxy)phenyl]pyrimidin-2-yl}morpholine]
≤ 1000 nM | C[C@@H]1CN(c2ncccc2Cl)CCN1c1cc(-c2cccc(OC(F)(F)F)c2)nc(N2CCOCC2)n1 [Example 535, 4-{4-[(2R)-4-(3-chloropyridin-2-yl)-2-methylpiperazin-1-yl]-6-[3-(trifluoromethoxy)phenyl]pyrimidin-2-yl}morpholine]
≤ 1000 nM | CSc1cccc(-c2cc(N3CCN(c4ncccc4C#N)C[C@H]3C)nc(N3CCOCC3)n2)c1 [Example 536, 2-((3R)-3-methyl-4-{6-[3-(methylthio)phenyl]-2-morpholin-4-ylpyrimidin-4-yl}piperazin-1-yl)nicotinonitrile]
≤ 1000 nM | CSc1cccc(-c2cc(N3CCN(c4ncccc4C)C[C@H]3C)nc(N3CCOCC3)n2)c1 [Example 537, 4-{4-[(2R)-2-methyl-4-(3-methylpyridin-2-yl)piperazin-1-yl]-6-[3-(methylthio)phenyl]pyrimidin-2-yl}morpholine]
≤ 1000 nM | CSc1cccc(-c2cc(N3CCN(c4ncccc4Cl)C[C@H]3C)nc(N3CCOCC3)n2)c1 [Example 539, 4-{4-[(2R)-4-(3-chloropyridin-2-yl)-2-methylpiperazin-1-yl]-6-[3-(methylthio)phenyl]pyrimidin-2-yl}morpholine]
≤ 1000 nM | COc1ccc(-c2cc(N3CCN(c4ncccc4Cl)C[C@H]3C)nc(N3CCOCC3)n2)cc1F [Example 542, 4-[4-[(2R)-4-(3-chloropyridin-2-yl)-2-methylpiperazin-1-yl]-6-(3-fluoro-4-methoxyphenyl)pyrimidin-2-yl]morpholine]
≤ 1000 nM | Cc1cccnc1N1CCN(c2cc(-c3cccc(OC(C)C)c3)nc(N3CCOCC3)n2)[C@H](C)C1 [Example 543, 4{4-(3-isopropoxyphenyl)-6-[(2R)-2-methyl-4-(3-methylpyridin-2-yl)piperazin-1-yl]pyrimidin-2-yl}morpholine]
≤ 1000 nM | CC(C)Oc1cccc(-c2cc(N3CCN(c4ncccc4Cl)C[C@H]3C)nc(N3CCOCC3)n2)c1 [Example 544, 4-[4-[(2R)-4-(3 chloropyridin-2-yl)-2-methylpiperazin-1-yl]-6-(3-isopropoxyphenyl)pyrimidin-2-yl]morpholine]
